Calls of active or inactive are those of the source.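 The calls were made as follows: active = at a dose no more than twice the top valid tested dose, the fitted curve drops below -35% activity change; inactive = the rest, rising-direction activity included.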

The first test in a line: NIH3T3 cell viability loss, ATP content – CellTiter-Glo luminescence, cherry-pick, set 2, cytotoxicity control for HSP40 inhibitor project, dose response (AID 624265).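 Also: cells exposed to compound for 48 hours before the ATP read; 0% = median neutral control signal and -100% = no luminescence left.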 Conditions: NIH3T3 viability, CellTiter-Glo ATP luminescence; at 16 µM (top of the series). A general note: Cellular ATP, detected with luciferase, serves as a proxy for viable cell number.
In the case of `CC(C)C(=O)NC(c1ccco1)c1ccc2cccnc2c1O` (stereo unspecified), the activity change, negative = toxicity was -30% (inactive).

Still in this test, the particulars now being: NIH3T3 viability, CellTiter-Glo ATP luminescence; at 50 µM (top of the series).
On to `COc1ccccc1-c1sc2cc3c(cc2c1C#Cc1cncn1C)OCO3`, for which the activity change, negative = toxicity is 17.2% (inactive).

As to `Cc1cc(/C=C2\SC(=S)N(C)C2=O)c(C)n1-c1ccc(O)cc1`, the activity change, negative = toxicity was 6.11% (inactive).

As to `COc1ccccc1C1CCN(C(=O)c2ccc(Cl)cc2)CC1`, the activity change, negative = toxicity is 6.31% (inactive).

On to `CC(=O)C1=C(c2cccc([N+](=O)[O-])c2)N(C(C)=O)n2c(C)nnc2S1`, for which the activity change, negative = toxicity is 4.36% (inactive).

For the compound `O=[N+]([O-])c1ccc2c(OCc3nnc(-c4ccccc4Br)o3)ncnc2c1`, the activity change, negative = toxicity was -6.18% (inactive).

As to `Cc1csc(NC(=O)C(C)Oc2ccc(Cl)cc2C)n1` (stereo unspecified), the activity change, negative = toxicity was 8.91% (inactive).

For the compound `COC(=O)C1=NN(C(=O)c2cccc(Br)c2)C(O)(c2ccc(Cl)cc2)C1` (stereo unspecified), the activity change, negative = toxicity is -0.434% (inactive).

For `O=C(NCc1ccncc1)c1ccccc1Nc1ccc(SC(F)F)cc1`, the activity change, negative = toxicity is 3.29% (inactive).

Regarding `COc1ccc(N(C(=O)c2ccncc2)S(=O)(=O)c2ccc(F)cc2)cc1`, the activity change, negative = toxicity was 0.026% (inactive).

As to `O=c1c(CO)cc(CO)cc(CO)c1O`, the activity change, negative = toxicity is -3.78% (inactive).

Turning to `COc1ccc(-c2cc(C(=O)N3CCN(c4ccccc4F)CC3)c3ccccc3n2)c(OC)c1`, the activity change, negative = toxicity was -9.73% (inactive).

As to `CN(C)c1ccc(C=c2c3cc(O)ccc3n3c2cc(-c2ccccc2)[n+]3C)cc1`, the activity change, negative = toxicity was 3.47% (inactive).

As to `Cc1ccc(O)c(C2=NNC(c3ccc(Cl)cc3)C2)c1` (stereo unspecified), the activity change, negative = toxicity was 0.122% (inactive).

`CC1Oc2ccccc2C=C1/C=N/Nc1ccc(C(=O)O)cc1` (stereo unspecified): the activity change, negative = toxicity was 1.68% (inactive).

As for `C=C(C)COc1ccc(-c2[nH]ncc2-c2ccc(Br)cc2)c(O)c1`, the activity change, negative = toxicity was 1.03% (inactive).

With `CCN(CC)c1ccc(/C=N/NC(=O)c2c(Cl)cnn2C)c(O)c1`, the activity change, negative = toxicity is -24.5% (inactive).

On to `CCCCNc1c(-c2ccc(-c3ccc(OC)cc3)c(OC)c2)nc2ccccn12`, for which the activity change, negative = toxicity is 2.06% (inactive).

With `CCCCCCSc1ccc(-c2nc3ccccn3c2NCCCC)cc1`, the activity change, negative = toxicity is 14% (inactive).

With `CCOc1ccc(N/N=C(/C#N)C(N)=O)cc1`, the activity change, negative = toxicity is 9.15% (inactive).

As for `CC(=O)NC(c1cccc([N+](=O)[O-])c1)c1ccc2cccnc2c1O` (stereo unspecified), the activity change, negative = toxicity is -27.2% (inactive).

With `O=C(Nc1nnc(SCc2ccc(F)cc2)s1)c1ccccn1`, the activity change, negative = toxicity is 5.25% (inactive).

Take `COC(=O)c1cccc2c1-c1ccccc1/C2=N/O`: the activity change, negative = toxicity is 28.2% (inactive).

Take `Cn1nc(C(F)(F)F)c(C#N)c1N1CCN(c2ccc(F)cc2)CC1`: the activity change, negative = toxicity is 21.3% (inactive).

Consider `C[C@@]12CCC3[C@@](CCC4[C@@]3(C)CCC[C@@]4(C)C(=O)NCc3ccccc3)(CC1=O)C2` (stereo partly specified), for which the activity change, negative = toxicity is 2.89% (inactive).

For the compound `CCCCC(CC)c1nnc(NC(=O)c2cccs2)s1` (stereo unspecified), the activity change, negative = toxicity is -1.51% (inactive).

Consider `O=C(/C(=N/N=C/c1ccc(O)c(O)c1O)c1ccccc1)c1ccccc1`, for which the activity change, negative = toxicity is -5.73% (inactive).

In the case of `O=C(CCCSc1ccccc1)Nc1nc(-c2ccccn2)cs1`, the activity change, negative = toxicity is -1.21% (inactive).

With `CCCn1c(=O)c(C(=O)NCc2ccc(OC)c(OC)c2)c(O)c2ccccc21`, the activity change, negative = toxicity is 30.8% (inactive).

In the case of `Cc1cc(Cl)ccc1C(=O)C1CCCN(C(=O)c2cncs2)C1` (stereo unspecified), the activity change, negative = toxicity is 14.2% (inactive).

For `CC(C)(C)n1nc(Cc2cccc3ccccc23)c2c(N)ncnc21`, the activity change, negative = toxicity was 9.94% (inactive).

On to `S=C(NCc1ccco1)Nc1ccc(Oc2ccc(Cl)cc2)cc1`, for which the activity change, negative = toxicity was 10.2% (inactive).

Consider `[O-][n+]1cccc2c(Br)cc(Br)c(O)c21`, for which the activity change, negative = toxicity was -12.1% (inactive).

For `CCCSC(=S)c1c(C)[nH]n(-c2ccccc2)c1=O`, the activity change, negative = toxicity is -14.1% (inactive).

On to `O/N=C/c1ccccc1OCc1ccc(Cl)cc1`, for which the activity change, negative = toxicity was 18.4% (inactive).

Regarding `O=[N+]([O-])c1cc(C(F)(F)F)ccc1NCCc1c[nH]c2ccc(O)cc12`, the activity change, negative = toxicity is -9.08% (inactive).

For the compound `O=C(Nc1ccc(Cl)cc1C(=O)Nc1ccc(Br)cn1)c1ccco1`, the activity change, negative = toxicity was -5.93% (inactive).

With `Cc1cc(Nc2ccccc2)nn1C(=O)c1ccccc1`, the activity change, negative = toxicity is 10% (inactive).

Consider `CCN1C(=O)C(CC(=O)Nc2ccccc2Cl)N(NC(=O)c2cccc(F)c2)C1=S` (stereo unspecified), for which the activity change, negative = toxicity is 11.9% (inactive).

`Nc1nc(-c2ccc(Oc3ccccc3)cc2)cs1`: the activity change, negative = toxicity was 6.84% (inactive).

On to `Cn1ccc(=Nc2ccc(NC(=O)c3ccc(N=c4ccn(C)c5ccc([N+](=O)[O-])cc45)cc3)cc2)cc1`, for which the activity change, negative = toxicity was 1.51% (inactive).

Regarding `COC(=O)COC(=O)c1ccccc1NC(=O)c1ccccc1`, the activity change, negative = toxicity was -14.7% (inactive).

In the case of `COc1ccc(N=N/C(=C\O)C(=O)c2cccs2)cc1`, the activity change, negative = toxicity is 14.1% (inactive).

Regarding `CC1(C(=O)OCC(=O)Nc2ccc3ccccc3c2)CC1(Cl)Cl` (stereo unspecified), the activity change, negative = toxicity was 0.196% (inactive).

Take `CC(/C=N/n1c(COc2ccccc2)n[nH]c1=S)=C\c1ccccc1`: the activity change, negative = toxicity is 14.6% (inactive).

Consider `O=c1cc(CSc2ccc(Cl)cc2)nc(-c2ccccn2)[nH]1`, for which the activity change, negative = toxicity is 20.7% (inactive).

`O/N=C/c1cc(Br)ccc1OCc1ccccc1F`: the activity change, negative = toxicity was 7.25% (inactive).

On to `O=C(CSc1ccc(-c2ccccn2)nn1)NCc1ccc(F)cc1`, for which the activity change, negative = toxicity is -2.59% (inactive).

In the case of `CC(C)NC(=O)NC(=O)COC(=O)c1ccc([N+](=O)[O-])cc1Cl`, the activity change, negative = toxicity is -6.58% (inactive).

Regarding `CC1(C)C2CCC1(C)C(OC(=O)c1ccc(O)cc1)C2` (stereo unspecified), the activity change, negative = toxicity is -0.777% (inactive).

Regarding `Cc1nc2ccc(C(C(F)(F)F)(C(F)(F)F)C(F)(F)F)cc2[nH]1`, the activity change, negative = toxicity is 3.14% (inactive).

`CCCCNC(=S)N/N=C1\CCCCc2ccccc21`: the activity change, negative = toxicity is 1.99% (inactive).

Regarding `CCc1ccc(OCc2n[nH]c(=S)n2Cc2ccccc2)cc1`, the activity change, negative = toxicity is 3.81% (inactive).

Turning to `O=C1OCC(CO)(CO)N=C1NNc1ccc(Cl)c(Cl)c1`, the activity change, negative = toxicity was 2.06% (inactive).

For the compound `CCOC(=O)c1ccc(NC(=S)N(Cc2cccnc2)Cc2ccco2)cc1`, the activity change, negative = toxicity is 2.56% (inactive).

Take `O=C(Nc1nnc(-c2cccs2)o1)c1cccc(Oc2ccccc2)c1`: the activity change, negative = toxicity is -7.72% (inactive).

For the compound `Cc1cc(C)c(C(=O)CC(=O)c2cccnc2)c(C)c1`, the activity change, negative = toxicity was 8.73% (inactive).

For `COc1ccc(N(C)S(=O)(=O)c2ccc(Cl)c(C(=O)NNC(=O)c3ccccc3O)c2)cc1`, the activity change, negative = toxicity was 3.26% (inactive).

For the compound `CCCCCOc1ccc(CSc2n[nH]c(C)n2)cc1`, the activity change, negative = toxicity was 5.34% (inactive).

Take `Cc1ccc(NC(=S)c2nc3ccccc3[nH]2)c(C)c1`: the activity change, negative = toxicity was -2.47% (inactive).

Regarding `Cc1cccc(Oc2nc(-c3ccccn3)nc3ccccc23)c1`, the activity change, negative = toxicity is 18.9% (inactive).

Take `Clc1nc(-c2ccccn2)nc2scc(-c3ccccc3)c12`: the activity change, negative = toxicity was 5.16% (inactive).

`O=C(CN1CC[n+]2c(-c3cccs3)csc21)c1ccc(-c2ccccc2)cc1`: the activity change, negative = toxicity is 28% (inactive).

Take `O=C(OCC(=O)C12CC3CC(CC(C3)C1)C2)c1ccc(O)cc1`: the activity change, negative = toxicity was 0.345% (inactive).

For the compound `O=Cc1cc(N=Nc2ccccc2Cl)ccc1O`, the activity change, negative = toxicity was -3.57% (inactive).

Consider `CC(=O)Nc1cccc(NC(=O)CSc2ccc(-c3ccccn3)nn2)c1`, for which the activity change, negative = toxicity is -9.54% (inactive).

Take `CCc1ccc(S(=O)(=O)N(C(=O)c2ccncc2)c2ccc(OC(=O)c3ccncc3)cc2)cc1`: the activity change, negative = toxicity is 12.1% (inactive).

For the compound `CC1(C)CC(=O)C(N=Nc2ccc3ncsc3c2)=C(O)C1`, the activity change, negative = toxicity was 3.01% (inactive).

Take `COc1cccc(C(C)=C2SC(=S)NC2=O)c1`: the activity change, negative = toxicity is 1.04% (inactive).

For the compound `FC(F)(F)c1cccc(N2CCc3cn[nH]c32)c1`, the activity change, negative = toxicity was -9.14% (inactive).

As to `Oc1c(I)cc(Cl)c2cccnc12`, the activity change, negative = toxicity was -13.1% (inactive).

For the compound `COc1cc2cnc(-c3ccccc3)c(C(=O)c3ccc(F)cc3)c2cc1OC`, the activity change, negative = toxicity was 26.6% (inactive).

Consider `Cc1ccc(Nc2cc(C)nn2-c2nc(C)cc(C)n2)cc1`, for which the activity change, negative = toxicity is -3.61% (inactive).

Consider `Oc1c(Br)cc(-c2ccccc2)cc1Br`, for which the activity change, negative = toxicity is 10.3% (inactive).

Turning to `O=C(NOC(=O)c1ccccc1)c1ccccc1`, the activity change, negative = toxicity was -12.1% (inactive).

`Clc1ccc(-c2n[nH]c3c2CCC3)cc1Cl`: the activity change, negative = toxicity was 1.25% (inactive).

For the compound `Cc1cccc(Nc2nc(-c3ccc(O)cc3O)cs2)n1`, the activity change, negative = toxicity is 0.061% (inactive).

As to `CC12CC3(C)CC(C)(C1)CC(NC(=O)N1CCCC1)(C2)C3`, the activity change, negative = toxicity was 17.5% (inactive).

With `CNc1cc(CSC)nc(SCc2ccc(Cl)cc2Cl)n1`, the activity change, negative = toxicity is 18.6% (inactive).

On to `Cc1nn(CCC#N)c(N)c1C1(O)C(=O)Nc2c(Cl)cc(Cl)cc21` (stereo unspecified), for which the activity change, negative = toxicity was -6.69% (inactive).

For `O=C(NC(=S)N(CCc1ccccc1)CCc1ccccc1)c1ccco1`, the activity change, negative = toxicity is 20.1% (inactive).

(Values after PubChem BioAssay AID624265 (Broad Institute, 2012).)
